Assay type in all cases: cell-based
Data set [1] deals with C-C chemokine receptor type 2 (Homo sapiens) (UniProt P41597). Put plainly: Binding affinity to CCR2 in human THP1 cells assessed as inhibition of MCP1-mediated monocyte migration after 30 mins by Transwell assay relative to untreated control. The following applies: THP-1.
Data set [2] has the same target. Put plainly: Binding affinity to CCR2 in human THP1 cells assessed as inhibition of MCP1-mediated monocyte migration at 10 uM after 30 mins by Transwell assay relative to untreated control. The following applies: THP-1.
The target is the same in data set [3]. Put plainly: Binding affinity to CCR2 in human THP1 cells assessed as inhibition of monocyte migration after 30 mins by Transwell assay. The following applies: THP-1.
Another data set has as its system THP-1. Description: Cytotoxicity against human THP1 cells assessed as cell death.
Data set [4] deals with C-C chemokine receptor type 2 (Homo sapiens) (UniProt P41597). Description: Binding affinity to CCR2 in human THP1 cells assessed as inhibition of SDF1-mediated monocyte migration after 30 mins by Transwell assay. To be noted: THP-1.

Activity calls are given as the source filed them. No cut-off for these calls is given here. Numbered stars: 1 amine (or outer) side, 2 acyl side, 3 side chain; on linkers, the order of the positions; unused ones are H or OH. Bridge positions count the residues as written; N and C are the ends. Square brackets hold non-standard residues; d marks the D form. Peptide text beside a SMILES is read from it. N(2-Aminoethyl)Gly = O=C(CN(CCN[*:3])[*:1])[*:2]; CO = O=C([*:1])[*:2]; Nlys = NCCCCNCC(=O)O

C-C chemokine receptor type 2 (Homo sapiens), sequence (P41597 whole entry, looked up): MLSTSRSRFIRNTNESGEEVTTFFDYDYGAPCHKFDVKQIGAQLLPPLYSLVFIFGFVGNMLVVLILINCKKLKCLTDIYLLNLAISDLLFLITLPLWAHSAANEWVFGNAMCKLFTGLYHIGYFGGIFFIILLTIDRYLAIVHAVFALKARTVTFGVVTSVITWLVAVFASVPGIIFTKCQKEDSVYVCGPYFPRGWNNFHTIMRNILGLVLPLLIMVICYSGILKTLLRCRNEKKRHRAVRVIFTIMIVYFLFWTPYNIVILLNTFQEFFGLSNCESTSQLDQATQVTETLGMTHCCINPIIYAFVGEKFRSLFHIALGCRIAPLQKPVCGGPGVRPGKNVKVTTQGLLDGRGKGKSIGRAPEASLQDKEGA

As for `CC[C@H](C)[C@H](NC(=O)[C@H](CC(C)C)NC(=O)[C@@H](NC(=O)CN1CCCCNC(=O)NCCNCC(=O)N[C@@H](CCSC)C(=O)N[C@@H](CC(C)C)C1=O)C(C)C)C(=O)N[C@@H](CC(C)C)C(N)=O` (H-[N(2-Aminoethyl)Gly]ML[Nlys]VLIL-NH2; linker 1-4 via CO), the inhibition entry in data set [1] was “inactive”.

With `CC[C@H](C)[C@H](NC(=O)[C@H](CC(C)C)NC(=O)CN1CCCCNC(=O)NCCNCC(=O)N[C@@H](CC(C)C)C(=O)N[C@@H](C(C)C)C1=O)C(=O)N[C@@H](CC(C)C)C(N)=O` (H-[N(2-Aminoethyl)Gly]LV[Nlys]LIL-NH2; linker 1-4 via CO), the inhibition result in data set [1] is “inactive”. On to H-VVLIL-OH, for which the inhibition entry in data set [2] was “inactive”. On to `CC[C@H](C)[C@H](NC(=O)[C@H](CC(C)C)NC(=O)[C@@H](N)C(C)C)C(=O)N[C@@H](CC(C)C)C(=O)O` (H-VLIL-OH), for which the inhibition entry in data set [2] was “inactive”. Still for that read-out and setting: next, H-LVVLIL-OH: “inactive”. For `CC[C@H](C)[C@H](NC(=O)CN1CCCCNC(=O)NCCN(C(=O)[C@@H](N)CCSC)CC(=O)N[C@@H](C(C)C)C(=O)N[C@@H](C(C)C)C1=O)C(=O)N[C@@H](CC(C)C)C(N)=O` (H-M[N(2-Aminoethyl)Gly]VV[Nlys]IL-NH2; linker 2-5 via CO), the inhibition entry in data set [1] is “inactive”. On to H-MLVVLIL-OH, for which the inhibition result in data set [2] is “Active”.

For the molecule `CC[C@H](C)[C@@H]1NC(=O)[C@H](CC(C)C)NC(=O)CN(C(=O)[C@@H](NC(=O)[C@H](CC(C)C)NC(=O)[C@@H](N)CCSC)C(C)C)CCNC(=O)NCCCCN(CC(N)=O)C1=O` (H-MLV[N(2-Aminoethyl)Gly]LI[Nlys]-NH2; linker 4-7 via CO), the inhibition entry in data set [3] and in data set [4] was “inactive” each time. Besides, in the data set with THP-1, the Activity result is on record as “Non-toxic”. The inhibition result in data set [1] is “Active”.

The values above are taken from ChEMBL document CHEMBL2396630, “Backbone cyclic helix mimetic of chemokine (C-C motif) receptor 2: a rational approach for inhibiting dimerization of G protein-coupled receptors” (Bioorg Med Chem, 2013).
